In paper PMC10913735, “New myxobacteria of the Myxococcaceae clade produce angiolams with antiparasitic activities” (Microbiology Spectrum, 2024):
Read-outs that look alike come from different tables or passages of the source.

What was measured:
[1] = tested on: Trypanosoma cruzi (Tulahuen C4) amastigotes; test: In vitro activity against Trypanosoma cruzi amastigotes; assay type: cell-based; conditions: for T. cruzi SI (selectivity index): IC50 in L6 cells divided by IC50 in T. cruzi; for IC50: Trypanosoma cruzi, Tulahuen C4, mean of at least three independent replicates ± SD, read-out: T. cruzi IC50
Description: (§1) Based on the antiparasitic bioactivity of the crude extract of MCy12716, angiolams A (1), B (2), C (3), D (4), and F (5) were tested for their in vitro activities against the following protozoan parasites: Trypanosoma brucei rhodesiense (STIB 900) bloodstream forms, Trypanosoma cruzi (Tulahuen C4) amastigotes, Leishmania donovani (MHOM/ET/67/L82) axenic amastigotes, and Plasmodium falciparum (NF54) proliferative erythrocytic stages. In parallel, the cytotoxicity of these compounds in rat skeletal myoblasts (L-6 cells) was determined in order to obtain an initial assessment of their selectivity.
(§2) In vitro activity assays against a panel of protozoal parasites, namely Trypanosoma brucei rhodesiense (STIB 900), Trypanosoma cruzi (Tulahuen C4), Leishmania donovani (MHOM/ET/67/L82), and Plasmodium falciparum (NF54), and cytotoxicity tests against mammalian cells (L6-cell line from rat-skeletal myoblasts) were performed according to previously described methods ([2], [3]). All assays were performed in at least three independent replicates.

Cytotoxicity in L6 cells = assay type: cell-based, rat
Description: as §1, §2

[2] = tested on: Leishmania donovani (MHOM/ET/67/L82) axenic amastigotes; test: In vitro activity against Leishmania donovani axenic amastigotes; assay type: cell-based; conditions: for L. donovani SI (selectivity index): IC50 in L6 cells divided by IC50 in L. donovani; for IC50: Leishmania donovani, MHOM-ET-67/L82 axenic amastigotes, mean of at least three independent replicates ± SD, read-out: L. donovani IC50
Description: as §1, §2

[3] = tested on: Trypanosoma brucei rhodesiense (STIB 900) bloodstream forms; test: In vitro activity against Trypanosoma brucei rhodesiense bloodstream forms; assay type: cell-based; conditions: for T. b. rhodesiense SI (selectivity index): IC50 in L6 cells divided by IC50 in T. b. rhodesiense; for IC50: Trypanosoma brucei, read-out: T. b. rhodesiense IC50
Description: as §1, §2

[4] = tested on: Plasmodium falciparum (NF54) proliferative erythrocytic stages; test: In vitro activity against Plasmodium falciparum erythrocytic stages; assay type: cell-based; conditions: for P. falciparum SI (selectivity index): IC50 in L6 cells divided by IC50 in P. falciparum; for IC50: Plasmodium falciparum
Description: In parallel, the cytotoxicity of these compounds in rat skeletal myoblasts (L-6 cells) was determined in order to obtain an initial assessment of their selectivity.
as §2

[5] = L6 rat skeletal myoblasts, mean of at least three independent replicates ± SD, read-out: Cytotoxicity in L6 cells IC50
[6] = STIB 900, mean of at least three independent replicates ± SD
[7] = NF54, mean of at least three independent replicates ± SD, read-out: P. falciparum IC50

SMILES	T. cruzi SI (selectivity index) [1]	IC50 [1]	L. donovani SI (selectivity index) [2]	IC50 [2]	T. b. rhodesiense SI (selectivity index) [3]	IC50 [3, 6]	IC50 [4, 7]	IC50 (Cytotoxicity in L6 cells; rat)	P. falciparum SI (selectivity index) [4]	also measured
C=C/C=C(\C)[C@@H](O)CC[C@@H](C)/C=C/[C@@H]1CC[C@@H](C)C(=O)CC(=O)N[C@@H](C)CCC(=O)[C@@H](C)[C@H](O)[C@@H](C)/C=C(\CC)C(=O)O1 [Angiolam D, angiolam D]	4.3	6.5 ± 2.2 µM	3.38	8.2 ± 4.5 µM	6.0	4.7 ± 1.9 µM	800 ± 600 nM			IC50 (Cytotoxicity in L6 cells; [5]): 27.8 ± 3.7 µM; P. falciparum SI (selectivity index) ([4]; listed as Angiolam D (4)): 37.1
C=C/C=C(\C)C(=O)CC[C@@H](C)/C=C/[C@@H]1CC[C@@H](C)C(=O)CC(=O)N[C@@H](C)CCC(=O)[C@@H](C)[C@H](O)[C@@H](C)/C=C(\C)C(=O)O1 [Angiolam B, angiolam B]	≤ 2.1	30.4 ± 10 µM	4.22	6.6 ± 1.9 µM	4.4	6.3 ± 1 µM	300 ± 100 nM	27.8 ± 2 µM	≥ 30	T. cruzi SI (selectivity index) ([1]; listed as Angiolam B (2)): 0.9; P. falciparum SI (selectivity index) ([4]; listed as Angiolam B (2)): 91.6
CC/C=C(\C)[C@@H](O)CC[C@@H](C)/C=C/[C@@H]1CC[C@@H](C)C(=O)CC(=O)N[C@@H](C)CCC(=O)[C@@H](C)[C@H](O)[C@@H](C)/C=C(\C)C(=O)O1 [Angiolam C, angiolam C]	≤ 2.1	34 ± 11.6 µM	1.99	15.4 ± 2.3 µM	6.8	4.5 ± 0.4 µM	600 ± 400 nM	30.6 ± 2.3 µM	≥ 30	T. cruzi SI (selectivity index) ([1]; listed as Angiolam C (3)): 0.9; P. falciparum SI (selectivity index) ([4]; listed as Angiolam C (3)): 53.7
C=C/C=C(\C)[C@@H](O)CC[C@@H](C)/C=C/[C@@H]1CC[C@@H](C)C(=O)CC(=O)N[C@@H](C)CCC(=O)[C@@H](C)[C@H](O)[C@@H](C)/C=C(\C)C(=O)O1 [Angiolam A, angiolam A]	7.3	12.9 ± 5.3 µM	5.62	16.7 ± 7.3 µM	63.2	1.5 ± 0.6 µM	2700 ± 500 nM	94 ± 23.7 µM	34.9	
CCCCCCCCCCCCCCCCOP(=O)([O-])OCC[N+](C)(C)C [Miltefosine, reference compound]				0.53 µM						
O=C(Cn1ccnc1[N+](=O)[O-])NCc1ccccc1 [Benznidazole, reference compound]		2.47 µM								
COc1cc([C@@H]2c3cc4c(cc3[C@H](O)[C@H]3COC(=O)[C@H]23)OCO4)cc(OC)c1OC [Podophyllotoxin, reference compound]										IC50 (Cytotoxicity in L6 cells; [5]): 0.02 µM
CCN(CC)CCCC(C)Nc1ccnc2cc(Cl)ccc12 (centres unmarked) [Chloroquine, reference compound]										IC50 ([4]; NF54, read-out: P. falciparum IC50): 4 nM
Nc1nc(N)nc(Nc2ccc([As]3SCC(CO)S3)cc2)n1 (centres unmarked) [Melarsoprol, reference compound]										IC50 [3]: 0.02 µM
C=C/C=C(\C)[C@@H](O)CC[C@@H](C)/C=C/[C@@H]1CC[C@@H](C)C(=O)CC(=O)N[C@@H](C)CCC(=O)[C@@H](C)[C@H](O)[C@@H](CC)/C=C(\CC)C(=O)O1 [Angiolam F, angiolam F]	≤ 2.1	24.4 ± 5 µM	2.83	17.6 ± 2.1 µM	2.0	25 ± 1.4 µM	1300 ± 600 nM	49.9 ± 21.6 µM	37	T. cruzi SI (selectivity index) ([1]; listed as Angiolam F (5)): 2.1; P. falciparum SI (selectivity index) ([4]; listed as Angiolam F (5)): 37.4
